Experimental data reported in BindingDB's records for PubMed 37116763 (n/a, 2023).

Biological target: T1, Nuclear factor erythroid 2-related factor 2 (Homo sapiens, UniProt Q16236)
T1 sequence (Q16236 whole entry): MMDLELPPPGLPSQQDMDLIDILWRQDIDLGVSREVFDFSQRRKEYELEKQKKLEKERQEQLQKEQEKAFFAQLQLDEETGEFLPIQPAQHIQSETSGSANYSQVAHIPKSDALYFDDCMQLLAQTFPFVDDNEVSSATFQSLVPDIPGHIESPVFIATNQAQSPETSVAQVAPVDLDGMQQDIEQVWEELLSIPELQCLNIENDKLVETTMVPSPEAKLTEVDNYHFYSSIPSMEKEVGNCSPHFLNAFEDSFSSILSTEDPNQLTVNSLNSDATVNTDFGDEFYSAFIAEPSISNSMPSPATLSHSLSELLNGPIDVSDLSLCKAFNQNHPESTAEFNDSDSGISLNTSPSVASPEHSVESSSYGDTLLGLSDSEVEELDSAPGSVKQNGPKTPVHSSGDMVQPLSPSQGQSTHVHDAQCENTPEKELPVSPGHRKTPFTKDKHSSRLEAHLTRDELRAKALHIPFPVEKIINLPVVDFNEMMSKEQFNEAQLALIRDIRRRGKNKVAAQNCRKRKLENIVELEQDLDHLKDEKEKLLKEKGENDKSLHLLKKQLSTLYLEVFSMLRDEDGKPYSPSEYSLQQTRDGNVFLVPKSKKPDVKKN
Assay: Activation of Nrf2 in human IMR-32-ARE-Luc cells by Bright-Glo luciferase assay

EC50 [µM] | SMILES
> 20 | CC(C)CN[C@H]1CS(=O)(=O)C[C@@H]1C(=O)Nc1ccc(Cl)c(Cl)c1
> 20 | O=C(O)CCCCCN[C@H]1CS(=O)(=O)C[C@@H]1S(=O)(=O)c1ccc(Cl)c(Cl)c1
> 20 | O=C(O)CCCN[C@H]1CS(=O)(=O)C[C@@H]1S(=O)(=O)c1ccc(Cl)c(Cl)c1
